# Test results published in US20170050957A1, “4-AMINO-6-(HETEROCYCLIC)PICOLINATES AND 6-AMINO-2-(HETEROCYCLIC)PYRIMIDINE-4-CARBOXYLATES AND THEIR USE AS HERBICIDES” (Dow AgroSciences LLC, priority 2013, published 2017).
# Experiments:
# Type in all cases: in vivo
# undesirable vegetation = assay: Herbicidal activity, comparison X is CF with X is CH; details: 1.08 and 1.09 vs 1.21 and 1.22; 1.15 and 1.16 vs 1.23 and 1.24; A is A15
# [1] = system: ivyleaf morningglory (Ipomoea hederecea); assay: Pre-emergent Test I herbicidal activity
# Description: (§1) Pre-emergent Test I Seeds of test species were planted into round plastic pots (5-inch diameter) containing sandy loam soil. After planting, all pots were sub-irrigated 16 h prior to compound application. Compounds were dissolved in a 97:3 v/v (volume/volume) mixture of acetone and dimethyl sulfoxide (DMSO) and diluted to the appropriate concentration in a final application solution containing water, acetone, isopropanol, DMSO and Agri-dex (crop oil concentrate) in a 59:23:15:1.0:1.5 v/v ratio and 0.02% w/v (weight/volume) of Triton X-155 to obtain the spray solution containing the highest application rate. The high application rate was serial diluted with the above application solution to provide delivery of the compound at rates 1/2×, 1/4× and 1/8× of the highest rate (equivalent to 4.0, 2.0, 1.0, and 0.5 kg/ha, respectively). Formulated compound (2.7 mL) was applied pipetted evenly over the soil surface followed by incorporation with water (15 mL). Following treatment, pots were returned to the greenhouse for the duration of the experiment. The greenhouse was programmed for an approximate 15 h photoperiod which was maintained at about 23-29° C. during the day and 22-28° C. during the night. Nutrients and water were added on a regular basis through surface irrigation and supplemental lighting was provided with overhead metal halide 1000-Watt lamps as necessary. Herbicidal effect ratings were obtained 14 days after treatment. All evaluations were made relative to appropriate controls on a scale of 0 to 100 where 0 represents no herbicidal effect and 100 represents plant death or lack of emergence from the soil.
# wild oats (Avena fatua) [2] = assay: Pre-emergent Test I herbicidal activity
# Description: as §1
# [3] = system: sunflower (Helianthus annuus); assay: Pre-emergent Test I herbicidal activity
# Description: as §1
# [4] = system: giant foxtail (Setaria faberi); assay: Pre-emergent Test I herbicidal activity
# Description: as §1
# [5] = system: ivyleaf morningglory (Ipomoea hederecea); assay: Post-emergent Test I herbicidal activity
# Description: (§2) Post-emergent Test I Seeds test species were obtained from commercial suppliers and planted into a 5″-round pot containing soil-less media mix (metro-mix 360®, Sun Gro Horticulture). Postemergence treatments were planted 8-12 days prior to application and cultured in a greenhouse equipped with supplemental light sources to provide a 16 h photoperiod at 24-29° C. All pots were surface irrigated. Approximately 10 milligrams (mg) of each compound were dissolved in 1.3 mL acetone-DMSO (97:3, v/v) and diluted with 4.1 mL water-isopropanol-crop oil concentrate (78:20:2, v/v/v) containing 0.02% Triton X-155. Treatments were serial diluted with the above formulation solvent to provide 1.85, 0.926, 0.462 and 0.231 mg/mL of test compound delivered in 2.7 mL/pot (roughly equivalent to 4.0, 2.0, 1.0, and 0.5 kg/ha, respectively). Formulated compounds were applied using a DeVilbiss® compressed air sprayer at 2-4 psi. Following treatment, pots were returned to the greenhouse for the duration of the experiment. All pots were sub-irrigated as need to provide optimum growing conditions. All pots were fertilized one time per week by subirrigating with Peters Peat-Lite Special® fertilizer (20-10-20). Phytotoxicity ratings were obtained 10 days after treatment postemergence applications. All evaluations were made visually on a scale of 0 to 100 where 0 represents no activity and 100 represents complete plant death. Visual assessments of plant injury were made based on growth reduction, discoloration, leaf deformity and necrosis
# wild oats (Avena fatua) [6] = assay: Post-emergent Test I herbicidal activity
# Description: as §2
# [7] = system: barnyardgrass (Echinochloa crus-galli); assay: Post-emergent Test I herbicidal activity
# Description: as §2
# [8] = system: sunflower (Helianthus annuus); assay: Post-emergent Test I herbicidal activity
# Description: as §2
# [9] = system: giant foxtail (Setaria faberi); assay: Post-emergent Test I herbicidal activity
# Description: as §2
compound,measurement,setting,value
COC(=O)c1nc(-c2ccc3cc[nH]c3c2)c(F)c(N)c1Cl [Compound 1.08],activity when X is CF compared with X is CH,undesirable vegetation,significant increase in activity
Nc1c(F)c(-c2ccc3cc[nH]c3c2)nc(C(=O)O)c1Cl [Compound 1.09],activity when X is CF compared with X is CH,undesirable vegetation,significant increase in activity
COC(=O)c1nc(-c2ccc3ccn(C)c3c2)c(F)c(N)c1Cl [Compound 1.10],Visual Growth Reduction (%) 14 Days After Application IPOHE,[1]; 3.96 Kg ai/ha,G (0-29)
same,Visual Growth Reduction (%) 14 Days After Application AVEFA,wild oats (Avena fatua) [2]; 3.96 Kg ai/ha,G (0-29)
same,Visual Growth Reduction (%) 14 Days After Application HELAN,[3]; 3.96 Kg ai/ha,G (0-29)
same,"Visual Growth Reduction (%) 14 Days After Application, SETFA",[4]; 3.96 Kg ai/ha,G (0-29)
same,Visual Growth Reduction (%) 10 Days After Application IPOHE,[5]; 3.96 Kg ai/ha,F (30-44)
same,Visual Growth Reduction (%) 10 Days After Application AVEFA,wild oats (Avena fatua) [6]; 3.96 Kg ai/ha,G (0-29)
same,Visual Growth Reduction (%) 10 Days After Application ECHCG,[7]; 3.96 Kg ai/ha,G (0-29)
same,Visual Growth Reduction (%) 10 Days After Application HELAN,[8]; 3.96 Kg ai/ha,A (95-100)
same,Visual Growth Reduction (%) 10 Days After Application SETFA,[9]; 3.96 Kg ai/ha,G (0-29)
"COC(=O)c1nc(-c2ccc3cc[nH]c3c2F)c(F)c(N)c1Cl [Compound 1.15, Methyl 4-amino-3-chloro-5-fluoro-6-(7-fluoro-1H-indol-6-yl)picolinate]",activity when X is CF compared with X is CH,undesirable vegetation,significant increase in activity
"Nc1c(F)c(-c2ccc3cc[nH]c3c2F)nc(C(=O)O)c1Cl [Compound 1.16, 4-Amino-3-chloro-5-fluoro-6-(7-fluoro-1H-indol-6-yl)picolinic acid]",activity when X is CF compared with X is CH,undesirable vegetation,significant increase in activity
Nc1c(F)c(-c2cccc3cc[nH]c23)nc(C(=O)O)c1Cl [Compound 1.48],Visual Growth Reduction (%) 14 Days After Application IPOHE,[1]; 4 Kg ai/ha,D (60-74)
same,Visual Growth Reduction (%) 14 Days After Application AVEFA,wild oats (Avena fatua) [2]; 4 Kg ai/ha,G (0-29)
same,Visual Growth Reduction (%) 14 Days After Application HELAN,[3]; 4 Kg ai/ha,C (75-84)
same,"Visual Growth Reduction (%) 14 Days After Application, SETFA",[4]; 4 Kg ai/ha,G (0-29)
same,Visual Growth Reduction (%) 10 Days After Application AVEFA,wild oats (Avena fatua) [6]; 4 Kg ai/ha,G (0-29)
same,Visual Growth Reduction (%) 10 Days After Application ECHCG,[7]; 4 Kg ai/ha,G (0-29)
same,Visual Growth Reduction (%) 10 Days After Application HELAN,[8]; 4 Kg ai/ha,C (75-84)
same,Visual Growth Reduction (%) 10 Days After Application SETFA,[9]; 4 Kg ai/ha,G (0-29)
COC(=O)c1nc(-c2ccc3sccc3c2)cc(N)c1Cl [Compound 3.05],Visual Growth Reduction (%) 14 Days After Application IPOHE,[1]; 4 Kg ai/ha,A (95-100)
same,Visual Growth Reduction (%) 14 Days After Application AVEFA,wild oats (Avena fatua) [2]; 4 Kg ai/ha,F (30-44)
same,Visual Growth Reduction (%) 14 Days After Application HELAN,[3]; 4 Kg ai/ha,F (30-44)
same,"Visual Growth Reduction (%) 14 Days After Application, SETFA",[4]; 4 Kg ai/ha,A (95-100)
same,Visual Growth Reduction (%) 10 Days After Application IPOHE,[5]; 4 Kg ai/ha,B (85-94)
same,Visual Growth Reduction (%) 10 Days After Application AVEFA,wild oats (Avena fatua) [6]; 4 Kg ai/ha,C (75-84)
same,Visual Growth Reduction (%) 10 Days After Application ECHCG,[7]; 4 Kg ai/ha,A (95-100)
same,Visual Growth Reduction (%) 10 Days After Application HELAN,[8]; 4 Kg ai/ha,B (85-94)
same,Visual Growth Reduction (%) 10 Days After Application SETFA,[9]; 4 Kg ai/ha,A (95-100)
